Legend:
Format in all cases: cell-based, mouse
[1] = tested on: α7 integrin (LacZ reporter in α7βgal+/− myoblasts); test: Myoblast α7+/LacZ integrin FDG assay (Burkin assay in myoblasts, 96-well); conditions: α7+/LacZ myoblasts, 96-well
[2] = tested on: α7 integrin (LacZ reporter in α7+/LacZ myotubes); test: Myotube α7 integrin FDG assay (Burkin assay in myotubes, 96-well); conditions: myotubes
[3] = tested on: β-galactosidase in CMV-LacZ C2C12 myotubes; test: CMV-LacZ secondary screen in C2C12 myotubes (β-Gal stabilizing assay); conditions: for CMV-LACZ in Myotubes (β-galactosidase activity relative to DMSO): CMV-LacZ C2C12 myotubes, 96-well format
Description: In order to determine compounds that acted to stabilize β-gal in myogenic cells, a CMV-LacZ C2C12 cell line was used in a secondary screen. The EGFP gene from the pEGFP (Clontech) vector was replaced by LACZ PCR product with digests of the vector/PCR product performed using EcoRI (NEB) and NotI (NEB) and ligated using T4 DNA Ligase (NEB) following standard procedures to produce the CMV-LACZ vector. The LACZ gene was generated by PCR from the pBK-RSV (Stratagene) vector using primers LACZ EcoRI F- and LACZ NotI R-. The CMV-LACZ vector was then digested with AfIII (NEB) to linearize the construct, which was then transfected in C2C12 myoblasts using Lipofectamine 2000 (Invitrogen) following the manufacturer's instructions. […] Clonal lines were selected and screened for βgal levels using the myoblast FDG assay.
The assays were used the original 96-well format and new dose-response curves for myoblasts (N=3-6 replicates for each data point), myotubes (N=3-6 replicates for data point), and CMV-LacZ secondary assay (N=2 replicates for each data point) using concentrations of 0.5 μM, 1 μM, 5 μM, 10 μM, 20 μM, and 40 μM (Tables 9-16).

[4] = 5 uM, C2C12 CMV-LacZ myotubes, fold relative to DMSO
[5] = 10 uM, C2C12 CMV-LacZ myotubes, fold relative to DMSO
[6] = 20 uM, C2C12 CMV-LacZ myotubes, fold relative to DMSO
[7] = 40 uM, C2C12 CMV-LacZ myotubes, fold relative to DMSO

Structure (SMILES)	Burkin Assay in Myoblasts, value relative to DMSO ([1]; 0.5 uM)	Burkin Assay in Myoblasts, value relative to DMSO ([1]; 1 uM)	Burkin Assay in Myoblasts, value relative to DMSO ([1]; 5 uM)	Burkin Assay in Myoblasts, value relative to DMSO ([1]; 10 uM)	Burkin Assay in Myoblasts, value relative to DMSO ([1]; 20 uM)	Burkin Assay in Myoblasts, value relative to DMSO ([1]; 40 uM)	Burkin Assay in Myotubes (signal relative to DMSO) ([2]; 0.5 uM)	Burkin Assay in Myotubes (signal relative to DMSO) ([2]; 1 uM)	Burkin Assay in Myotubes (signal relative to DMSO) ([2]; 5 uM)	Burkin Assay in Myotubes (signal relative to DMSO) ([2]; 10 uM)	Burkin Assay in Myotubes (signal relative to DMSO) ([2]; 20 uM)	Burkin Assay in Myotubes (signal relative to DMSO) ([2]; 40 uM)	CMV-LACZ in Myotubes, signal relative to DMSO [3, 4]	CMV-LACZ in Myotubes, signal relative to DMSO [3, 5]	CMV-LACZ in Myotubes, signal relative to DMSO [3, 6]	CMV-LACZ in Myotubes, signal relative to DMSO [3, 7]	CMV-LACZ in Myotubes (β-galactosidase activity relative to DMSO) ([3]; 5 uM)	CMV-LACZ in Myotubes (β-galactosidase activity relative to DMSO) ([3]; 10 uM)	CMV-LACZ in Myotubes (β-galactosidase activity relative to DMSO) ([3]; 20 uM)	CMV-LACZ in Myotubes (β-galactosidase activity relative to DMSO) ([3]; 40 uM)	further results
CCOc1ccc2ccccc2c1C1NC(=O)N(C)C(C)=C1C(=O)OCCOC (stereo not drawn) [MLS001167424-01]	0.9904	1.428	0.8924	0.907	0.7995	0.8164	1.046	0.9596	1.365	0.7848	1.0277	0.9779	0.7491	0.9718	1.157	0.9925	–	–	–	–	–
Cc1cccc(OCc2nc(C#N)c(N3CCCC3)o2)c1 [MLS000332693-01]	1.04	0.9937	1.068	1.095	0.895	0.9225	1.0441	0.9631	1.092	0.9798	0.9709	0.9252	–	–	–	–	1.244	0.9794	0.8804	0.9304	–
CC(=O)c1cccc(NC(=O)C2CCCN(S(=O)(=O)c3cccc4nonc34)C2)c1 (stereo not drawn) [MLS000937079-01]	1.163	0.8958	1.053	1.147	1.028	0.9956	1.0515	0.6372	0.9756	0.8882	1.142	0.9197	–	–	–	–	1.087	0.9923	0.9641	0.9682	–
COc1ccc(N2CCN(CCC3Oc4cc([N+](=O)[O-])ccc4NC3=O)CC2)cc1 (stereo not drawn) [MLS000696445-01]	–	–	–	–	–	–	–	–	–	–	–	–	1.268	1.011	1.122	0.924	–	–	–	–	Burkin Assay in Myoblasts, signal relative to DMSO ([1]; 0.5 uM): 1.013; Burkin Assay in Myoblasts, signal relative to DMSO ([1]; 1 uM): 0.5621; Burkin Assay in Myoblasts, signal relative to DMSO ([1]; 5 uM): 0.867; Burkin Assay in Myoblasts, signal relative to DMSO ([1]; 10 uM): 0.8807; Burkin Assay in Myoblasts, signal relative to DMSO ([1]; 20 uM): 0.813; Burkin Assay in Myoblasts, signal relative to DMSO ([1]; 40 uM): 0.807; Burkin Assay in Myotubes, α7 integrin LacZ reporter signal relative to DMSO ([2]; 0.5 uM): 0.8602; Burkin Assay in Myotubes, α7 integrin LacZ reporter signal relative to DMSO ([2]; 1 uM): 0.8637; Burkin Assay in Myotubes, α7 integrin LacZ reporter signal relative to DMSO ([2]; 5 uM): 0.9714; Burkin Assay in Myotubes, α7 integrin LacZ reporter signal relative to DMSO ([2]; 10 uM): 0.625; Burkin Assay in Myotubes, α7 integrin LacZ reporter signal relative to DMSO ([2]; 20 uM): 0.5843; Burkin Assay in Myotubes, α7 integrin LacZ reporter signal relative to DMSO ([2]; 40 uM): 0.8433
COc1cc(NC(=O)C2C3C=CC(C3)C2C(=O)O)ccc1NC(=O)c1ccccc1 (stereo not drawn) [MLS001125488-01]	–	–	–	–	–	–	–	–	–	–	–	–	–	–	–	–	–	–	–	–	fold induction at 0.5 µM ([1]; Mus musculus, Myoblast, 48 h, 0.5 uM, read-out: Burkin Assay in Myoblasts, signal relative to DMSO): 0.933; fold induction at 1 µM ([1]; Mus musculus, Myoblast, 48 h, 1 uM, read-out: Burkin Assay in Myoblasts, signal relative to DMSO): 0.976; fold induction at 5 µM ([1]; Mus musculus, Myoblast, 48 h, 5 uM, read-out: Burkin Assay in Myoblasts, signal relative to DMSO): 0.99; fold induction at 10 µM ([1]; Mus musculus, Myoblast, 48 h, 10 uM, read-out: Burkin Assay in Myoblasts, signal relative to DMSO): 0.879; fold induction at 20 µM ([1]; Mus musculus, Myoblast, 48 h, 20 uM, read-out: Burkin Assay in Myoblasts, signal relative to DMSO): 0.907; fold induction at 40 µM ([1]; Mus musculus, Myoblast, 48 h, 40 uM, read-out: Burkin Assay in Myoblasts, signal relative to DMSO): 0.923; fold induction at 0.5 µM ([2]; Mus musculus, Myotube, 0.5 uM, read-out: Burkin Assay in Myotubes, α7 integrin LacZ reporter signal relative to DMSO): 1.03; fold induction at 1 µM ([2]; Mus musculus, Myotube, 1 uM, read-out: Burkin Assay in Myotubes, α7 integrin LacZ reporter signal relative to DMSO): 1.15; fold induction at 5 µM ([2]; Mus musculus, Myotube, 5 uM, read-out: Burkin Assay in Myotubes, α7 integrin LacZ reporter signal relative to DMSO): 1.12; fold induction at 10 µM ([2]; Mus musculus, Myotube, 10 uM, read-out: Burkin Assay in Myotubes, α7 integrin LacZ reporter signal relative to DMSO): 1.32; fold induction at 20 µM ([2]; Mus musculus, Myotube, 20 uM, read-out: Burkin Assay in Myotubes, α7 integrin LacZ reporter signal relative to DMSO): 1.14; fold induction at 40 µM ([2]; Mus musculus, Myotube, 40 uM, read-out: Burkin Assay in Myotubes, α7 integrin LacZ reporter signal relative to DMSO): 1.22; fold induction at 5 µM ([3]; Mus musculus, C2C12, read-out: CMV-LACZ in Myotubes, signal relative to DMSO, 5 uM, C2C12 CMV-LacZ myotubes, fold relative to DMSO): 0.747; fold induction at 10 µM ([3]; Mus musculus, C2C12, read-out: CMV-LACZ in Myotubes, signal relative to DMSO, 10 uM, C2C12 CMV-LacZ myotubes, fold relative to DMSO): 0.968; fold induction at 20 µM ([3]; Mus musculus, C2C12, read-out: CMV-LACZ in Myotubes, signal relative to DMSO, 20 uM, C2C12 CMV-LacZ myotubes, fold relative to DMSO): 1.18; fold induction at 40 µM ([3]; Mus musculus, C2C12, read-out: CMV-LACZ in Myotubes, signal relative to DMSO, 40 uM, C2C12 CMV-LacZ myotubes, fold relative to DMSO): 0.872
O=C(Nc1ccc(N2CCN(C(=O)c3ccccc3F)CC2)cc1)c1cncc(Br)c1 [MLS001060533-01]	0.9049	0.9915	1.033	1.101	1.397	1.22	0.9464	1.208	1.318	1.52	1.342	1.117	–	–	–	–	0.8358	0.7789	0.7716	0.6871	–

From patent US9980943B2, “Methods of treating muscular dystrophy” (BOARD OF REGENTS OF THE NEVADA SYSTEM OF HIGHER EDUCATION, …, priority 2013, dated 2018)
